“Also recorded” adds a separate entry of the source.
Tested on: wild-type c57/black mice
Experiment: Topical application of PGD2 to the shaved central back of mice, effect on hair growth
Assay type: in vivo
Procedure: 25 day-old (corresponding to end of the first telogen stage) wild-type c57/black mice were treated with 200 ng of PGD2 (Cayman Chemicals) diluted in 200 μl of acetone applied to the central back after shaving. Subsequent treatments were performed every 3 days, ending on day 40 For a total of […]. Photographs were taken on day 46 of life, after the end of the 2nd anagen. In the second experiment, mice were shaved and treated with 10 μg of PGD2 dissolved in 200 μl of acetone on days 66 and 69 of life, and then photographed on day #121.

Q: For `CCCCC[C@H](O)/C=C/[C@H]1C(=O)C[C@H](O)[C@@H]1C/C=C\CCCC(=O)O` [PGD2, prostaglandin D2], which “effect of PGD2 on hair growth (alopecia)” value (25 day-old mice, 200 ng PGD2 in 200 μl acetone on central back after shaving, every 3 days to day 40 (5 applications), photographed day 46 after end of 2nd anagen) is on record?
A: baldness (alopecia); also recorded: induced alopecia

Q: What about the “effect of PGD2 on hair regrowth” value (mice shaved, 10 μg PGD2 in 200 μl acetone on days 66 and 69 of life, photographed day 121, over 50 days after the last application) of the same compound?
A: prevent hair regrowth

Reference: US9254293B2, “Methods and compositions for inhibiting or reducing hair loss, acne, rosacea, prostate cancer, and BPH” (The Trustees of the University of Pennsylvania, priority 2006, dated 2016)
